# Laboratory results: publication PMC10714399, “Open Source Antibiotics: Simple Diarylimidazoles Are Potent against Methicillin-Resistant Staphylococcus aureus” (ACS Infectious Diseases, 2023)
# Structures can show the parent of a compound that is named as a salt. Where two headings read alike, the source gives them in different places.
# Legend:
# [1] = system: Staphylococcus aureus ATCC 43300 MRSA; assay: CO-ADD antibacterial assay (growth inhibition, MIC), MRSA; format: cell-based
# Procedure: Hit Confirmation of active compounds by whole cell growth inhibition assays was conducted as an 8-point dose response to determine the Minimum Inhibitory Concentration (MIC), in duplicate (n=2). The inhibition of growth is measured against those microorganisms that […]
# Included in the Hit Confirmation were 5 bacteria: Escherichia coli, Klebsiella pneumoniae, Acinetobacter baumannii, Pseudomonas aeruginosa and Staphylococcus aureus, and 2 fungi Candida albicans and Cryptococcus neoformans. […]
# Assay Parameters Bacteria Fungi HEK293 Haemolysis […]
# Duplicate (n=2) Duplicate (n=2) Duplicate (n=2) Duplicate (n=2)
# QC Control MIC: Control MIC: Control CC50: Control HC10:
# Non-Binding Non-Binding TC, 384-well Polypropylene
# Plates Surface (NBS), Surface (NBS), black wall/clear 384-well and 384-well plate 384-well plate bottom polystyrene 384-
# Cation-adjusted Yeast Nitrogen DMEM
# Media Mueller Hinton Base supplemented 0.9% NaCl
# Hit Confirmation outcomes are detailed in individual Project reports, personalised for each Project Submission for each CO-ADD user.
# Please see your data sheet with file extension P0XXX_HC_data.xlsx, for example CO-ADD Project P0100, P0100_HC_data.xlsx
# Study: HC_data ID: HC-Procedures & Materials
# Date: Last updated June 2018 Confidential Page 3 of 11
# (1 picture or pasted object on this page, not shown here)
# Samples were provided by the collaborator and stored frozen at -20 °C. Samples were prepared in DMSO and water to a final testing concentration of 32 µg/mL or 20 µM (unless otherwise indicated in the data sheet) and serially diluted 1:2 fold for 8 times. Each sample concentration was prepared in 384-well plates, non-binding surface plate (NBS; Corning 3640) for each bacterial/fungal strain, tissue-culture treated (TC-treated; Corning 3712/3764) black for mammalian cell types and polypropylene 384-well (PP; Corning 3657) for haemolysis assays, all in duplicate (n=2), and keeping the final DMSO concentration to a maximum of 0.5%. All the sample preparation was done using liquid handling robots. […]
# detailed in the Data sheet for the individual Project.
# All bacteria were cultured in Cation-adjusted Mueller Hinton broth (CAMHB) at 37 °C overnight. A sample of each culture was then diluted 40-fold in fresh broth and incubated at 37 °C for 1.5-3 h. The resultant mid-log phase cultures were diluted (CFU/mL measured by OD600), then added to each well of the compound containing plates, giving a cell density of 5×10^5 CFU/mL and a total volume of 50 µL. All the plates were covered and incubated at 37 °C for 18 h without shaking.
# Inhibition of bacterial growth was determined measuring absorbance at 600 nm (OD600), using a Tecan M1000 Pro monochromator plate reader. The percentage of growth inhibition was calculated for each well, using the negative control (media only) and positive control (bacteria without inhibitors) on the same plate as references.
# The percentage of growth inhibition was calculated for each well, using the negative control (media only) and positive control (bacteria without inhibitors) on the same plate. The MIC […]
# by an inhibition ≥ 80%. In addition, the maximal percentage of growth inhibition is reported as DMax, indicating any compounds with partial activity.
# Date: Last updated June 2018 Confidential Page 5 of 11
# Material Code Brand/Supplier Cat No.
# Compound preparation plate, Polypropylene PP Corning 3364
# Assay Plates – Antimicrobial
# Non-binding surface NBS 384w Corning 3640
# Assay Plates – Cytotoxicity
# Tissue culture treated Black/Clear bottom 384w Corning 3712
# Assay Plates - Haemolysis PP-Haem Corning 3657 […]
# Growth media - bacteria CAMHB Bacto Laboratories 212322
# Culture agar - fungi YPD Becton Dickinson 242720
# Growth media - fungi YNB Becton Dickinson 233520
# Resazurin Sigma-Aldrich R7017
# Dulbecco's Modified Eagle Medium DMEM Life Technologies 11995-073
# Foetal Bovine Serum FBS Bovogen FFBS-500
# 0.9% NaCl Saline Baxter AHF7124
# Sample Name Sample ID MW Conc. Solvent Source […]
# [2] = system: S. aureus ATCC 25923 (methicillin-susceptible); assay: In vitro antibacterial activity, MIC (UCL), MSSA; format: cell-based, Staphylococcus aureus; conditions: Staphylococcus aureus
# In short: (§1)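 Growth inhibition was read as MIC across a two-fold range of 32 down to 0.03 μg/mL in isosensitest broth. Bacteria from overnight plates were set to A600 0.1 in PBS, about 1 × 10^8 CFU/mL, and diluted 1:100 before inoculation.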
# [3] = system: Staphylococcus aureus NCTC 13373 (mecA-positive; methicillin-resistant); assay: In vitro antibacterial activity, MIC (UCL School of Pharmacy assay), MRSA; format: cell-based; conditions: Staphylococcus aureus
# In short: as §1
# [4] = system: Enterococcus faecalis ATCC 51299 (vanA-positive; vancomycin-resistant); assay: In vitro antibacterial activity, MIC (UCL), VRE; format: cell-based; conditions: read-out: VRE MIC
# In short: as §1
# [5] = HEK293 toxicity, 96-well dose-response (UCL; MTT or resazurin, with or without recovery); format: cell-based, human; conditions: human, HEK293 cells; 32 μg/mL; read-out: spread of Dmax values comparing recovery and non-recovery conditions
# Procedure: The importance of balancing potency vs MRSA and cytotoxicity led us to examine a subset of compounds more thoroughly for toxicity against human embryonic kidney cell line HEK293. […] Dmax is a parameter that quantifies toxicity at the highest tested concentration (32 μg/mL for all compounds), calculated as reciprocal percentage of viable cells (100 – viability%), where cells either were allowed to recover or viability was measured immediately after treatment. […] Our efforts focused on trying to replicate the original toxicity experiments (by CO-ADD) with tamoxifen using a protocol modified for use with 96-well plates. Given the variability of protocols and results in the literature,[28] it was important to compare with a standard protocol we have reliably used in our own laboratories.[29]−[33] […] Truly “non-toxic” compounds might be expected to show Dmax < 50% for all experiment variations, e.g., 861. […] A large spread of Dmax values comparing recovery and non-recovery conditions larger than 20% is perhaps indicative of a mechanism of toxicity that persists beyond exposure, i.e., cytotoxic compounds that continue to induce toxicity as cells recover and restart dividing, for example, compounds 865, 870, 871, 980, and 981. […] This variability could be driven by interference of the compounds with the fluorescence readout or resorufin build-up as previously described.[27]
# HEK293 cells (ATCC, UK) at passage 32 were a kind gift from Dr. Ben Allsop from the Translational Research Office at University College London. Cells were tested for mycoplasma using a MycoAlert Detection Kit (Lonza, Switzerland) as per manufacturer instructions, frozen stocks were stored in liquid nitrogen, and cells were re-tested whenever a new aliquot was thawed.
# Cells were maintained in DMEM (Sigma-Aldrich, UK) supplemented with 10% heat-inactivated FBS (Sigma-Aldrich, UK), 1% GlutaMax (ThermoFisher, UK), and 1% sodium pyruvate (Lonza, UK) without antibiotics in an incubator at 37 °C and 5% CO2. Media was changed every 2 days, and cells were passaged every 3–4 days at a subcultivation ratio of 1:10, by detaching the cells with phenol-free TrypLE Express (ThermoFisher, UK), after washing with HBSS Ca^2+/Mg^2+ (ThermoFisher, UK). Up to 55 passages were used throughout the experiments.
# (a) Cell seeding: At subculture, a dilute solution of cells was counted using Trypan Blue (Sigma-Aldrich, UK) and a hemocytometer. Cells were further diluted to 7000 or 50 000 cells/mL for experiments.
# For recovery experiments, 700 cells (100 μL) were seeded in 96-well plates and incubated for 48 h while cells reached exponential phase.
# For non-recovery experiments, 5000 cells (100 μL) were seeded in 96-well plates and incubated for 48 h while cells reached confluence. This is the same number of cells as per the CO-ADD protocol where 384-well plates were used, but we extended the growth time to 48 h to produce a similar confluency.
# Stock solutions were diluted 100 times (to 1% DMSO) to 32 μg/mL in full medium (vortexed briefly) and then serially diluted using a digital pipet (Explorer, Eppendorf, Germany) at a dilution factor of 2 to a final concentration of […].
# (c) Dosing experiments: At the specified time after seeding, media was removed from cells, cells were washed with HBSS Ca^2+/Mg^2+ (100 μL), and 100 μL of diluted compounds were added as per Supporting Information - Biology, Figure S4, and incubated for 24 h.
# After treatment, solutions were removed, and cells were washed with HBSS Ca^2+/Mg^2+. For non-recovery experiments, viability was determined immediately as described below.
# For recovery experiments, fresh media was added to plates (100 μL) and cells were returned to the incubator for another 72 h, after which viability was recorded as described below.
# i. MTT assay: 3-[4,5-Dimethylthiazol-2-yl]-2,5-diphenyltetrazolium bromide (MTT) (Sigma-Aldrich, UK) was dissolved in sterile PBS at 5 mg/mL with sonication (20 min), protected from light. […]
# [6] = Aqueous solubility; format: physicochemical; conditions: thermodynamic from solid; read-out: Aqueous Solubility
# [7] = Human plasma protein binding (PPB); format: in vitro ADME; conditions: human, plasma; read-out: Human PPB (converted)
# [8] = system: PMM (primary mouse macrophages); assay: Toxicity against PMM; format: cell-based
# Procedure: (§2) ADME and toxicity for compounds were measured according to procedures outlined in the manuscript submitted in parallel to this one;2 other procedures were used for those compounds analysed by Monash University (in vitro ADME) or UCL (toxicity), both described in the main
# [9] = system: MRC-5SV2 (human lung fibroblast cell line); assay: Toxicity against MRC-5SV2; format: cell-based
# Procedure: as §2
structure (smiles),measurement,setting,value
c1ccc(-c2nc3ncccn3c2-c2ccc3c(c2)OCO3)nc1 [OSA_000815],MIC,[1]; read-out: MRSA MIC (CO-ADD),> 32 µg/mL
c1cncc(-c2nc3n(c2-c2ccc4c(c2)OCO4)CCC3)c1 [OSA_000816],MIC,[1]; read-out: MRSA MIC (CO-ADD),> 32 µg/mL
c1cc(-c2nc3n(c2-c2ccc4c(c2)OCO4)CCC3)ccn1 [OSA_000817],MIC,[1]; read-out: MRSA MIC (CO-ADD),> 32 µg/mL
c1ccc(-c2nc3n(c2-c2ccc4c(c2)OCO4)CCCC3)nc1 [OSA_000818],MIC,[1]; read-out: MRSA MIC (CO-ADD),16 µg/mL
c1ccc(-c2nc3n(c2-c2ccc4c(c2)OCCO4)CCC3)nc1 [OSA_000819],MIC,[1]; read-out: MRSA MIC (CO-ADD),16 µg/mL
COc1ccc(-c2c(-c3ccccn3)nc3n2CCC3)cc1OC [OSA_000820],MIC,[2]; read-out: MSSA MIC (UCL),> 32 µg/mL
same,MIC,[1]; read-out: MRSA MIC (CO-ADD),32 µg/mL
same,MIC,"[3]; UCL, read-out: MRSA MIC (UCL)",> 32 µg/mL
COc1ccc(-c2c(-c3ccccn3)nc3n2CCC3)cc1 [OSA_000823],MIC,[1]; read-out: MRSA MIC (CO-ADD),16 µg/mL
CSc1ccc(-c2c(-c3ccccn3)nc3n2CCC3)cc1 [OSA_000824],MIC,[1]; read-out: MRSA MIC (CO-ADD),4 µg/mL
COc1cccc(-c2c(-c3ccccn3)nc3n2CCC3)c1 [OSA_000825],MIC,[1]; read-out: MRSA MIC (CO-ADD),16 µg/mL
CSc1cccc(-c2c(-c3ccccn3)nc3n2CCC3)c1 [OSA_000826],MIC,[1]; read-out: MRSA MIC (CO-ADD),4 µg/mL
c1ccc(-c2nc3n(c2-c2ccc4c(c2)CCO4)CCC3)nc1 [OSA_000827],MIC,[1]; read-out: MRSA MIC (CO-ADD),32 µg/mL
c1ccc(-c2nc3n(c2-c2ccc4c(c2)OCC4)CCC3)nc1 [OSA_000828],MIC,[1]; read-out: MRSA MIC (CO-ADD),32 µg/mL
c1ccc(-c2nc3n(c2-c2ccc4ccoc4c2)CCC3)nc1 [OSA_000829],MIC,[1]; read-out: MRSA MIC (CO-ADD),4 µg/mL
c1ccc(-c2nc3n(c2-c2ccc4ccsc4c2)CCC3)nc1 [OSA_000830],MIC,[1]; read-out: MRSA MIC (CO-ADD),4 µg/mL
"CN[C@H](CC(C)C)C(=O)N[C@H]1C(=O)N[C@@H](CC(N)=O)C(=O)N[C@H]2C(=O)N[C@H]3C(=O)N[C@H](C(=O)N[C@H](C(=O)O)c4cc(O)cc(O)c4-c4cc3ccc4O)[C@H](O)c3ccc(c(Cl)c3)Oc3cc2cc(c3O[C@@H]2O[C@H](CO)[C@@H](O)[C@H](O)[C@H]2O[C@H]2C[C@](C)(N)[C@H](O)[C@H](C)O2)Oc2ccc(cc2Cl)[C@H]1O [Vancomycin - HCl, Vancomycin - HCL, reference compound]",MIC,[1]; read-out: MIC MRSA (CO-ADD),1 µg/mL
Cc1ccc(-c2c(-c3ccccn3)nc3n2CCC3)cc1 [compound 865],MIC,[4],16 µg/mL
same,"Dmax spread between recovery and non-recovery conditions at 24 h, 32 μg/mL",[5],> 20%
same,MIC,[2]; read-out: MSSA MIC,1 µg/mL
same,solubility,[6],32 µM
same,fraction unbound,[7],0.08
same,MIC,"[3]; 16 h, read-out: MRSA MIC",4 µg/mL
same,MIC,[3]; read-out: MRSA MIC,4 µg/mL
c1ccc(-c2c(-c3ccccn3)nc3n2CCC3)cc1 [compound 870],MIC,[4],> 32 µg/mL
same,"Dmax spread between recovery and non-recovery conditions at 24 h, 32 μg/mL",[5],> 20%
same,MIC,[3]; read-out: MRSA MIC,32 µg/mL
c1ccc(-c2nc3ccccn3c2-c2ccc3sccc3c2)nc1 [compound 871],MIC,[4],8 µg/mL
same,"Dmax spread between recovery and non-recovery conditions at 24 h, 32 μg/mL",[5],> 20%
same,MIC,[3]; read-out: MRSA MIC,4 µg/mL
COc1ccc2nc(-c3ccccn3)c(N(C)c3ccc(F)cc3)n2c1 [compound 980],MIC,[4],8 µg/mL
same,"Dmax spread between recovery and non-recovery conditions at 24 h, 32 μg/mL",[5],> 20%
same,PMM TC50,[8],2.8 µg/mL
same,MIC,[2]; read-out: MSSA MIC,4 µg/mL
same,MRC5 TC50,[9],0.7 µg/mL
same,MIC,[3]; read-out: MRSA MIC,4 µg/mL
CCN(c1ccc(F)cc1)c1c(-c2ccccn2)nc2ccccn12 [compound 981],MIC,[4],8 µg/mL
same,"Dmax spread between recovery and non-recovery conditions at 24 h, 32 μg/mL",[5],> 20%
same,PMM TC50,[8],2.7 µg/mL
same,MIC,[2]; read-out: MSSA MIC,2 µg/mL
same,MRC5 TC50,[9],1.6 µg/mL
same,MIC,[3]; read-out: MRSA MIC,2 µg/mL
